Experiment [1] has as its system Calf thymus DNA. Put plainly: Binding affinity to calf thymus DNA assessed as DNA intercalation by measuring increase in viscosity at 5 uM by Ostwald viscometric method. The note with it: Bos taurus. In kind it is nucleic-acid assay.
For another experiment, the system named is A549. Description: Antiproliferative activity against human A549 cells after 48 hrs by MTT assay. In kind it is functional, cell-based. The note with it: A549, 48 h. (In general: Formazan colour is commonly taken as a measure of viable cells.)
A further experiment has as its system MCF7. Put plainly: Antiproliferative activity against human MCF7 cells after 48 hrs by MTT assay. In kind it is functional, cell-based. The settings on record: MCF7, 48 h.
Experiment [2] concerns HeLa. Description: Antiproliferative activity against human HeLa cells after 48 hrs by MTT assay. In kind it is functional, cell-based.
The next experiment relates to HEK293. Description: Antiproliferative activity against HEK293 cells after 48 hrs by MTT assay. The format is cell-based. The settings on record: Homo sapiens, HEK293, 48 h.
Experiment [3] concerns Calf thymus DNA. Put plainly: Binding affinity to calf thymus DNA assessed as hypochromicity at 10 uM by UV-Visible spectrophotometric method. The format is nucleic-acid assay. The note with it: Bos taurus.
The subject of experiment [4] is Calf thymus DNA. Description: Binding affinity to calf thymus DNA assessed as hypochromicity shift at 10 uM by fluorescence spectral analysis. The settings on record: Bos taurus. In kind it is nucleic-acid assay.
Experiment [5] has as its system Calf thymus DNA. Put plainly: Binding affinity to calf thymus DNA assessed as hypochromicity shift in positive band at DNA to compound ratio of 1:1 by CD spectral analysis. The format is nucleic-acid assay. The settings on record: Bos taurus.
The subject of experiment [6] is Calf thymus DNA. Description: Binding affinity to calf thymus DNA assessed as hypochromicity shift in positive band at DNA to compound ratio of 1:2 by CD spectral analysis. The format is nucleic-acid assay. The note with it: Bos taurus.
The subject of experiment [7] is Calf thymus DNA. Put plainly: Binding affinity to calf thymus DNA assessed as hypochromicity shift in negative band at DNA to compound ratio of 1:1 to 1:2 by CD spectral analysis. In kind it is nucleic-acid assay. The settings on record: Bos taurus.
Experiment [8] relates to Calf thymus DNA. Put plainly: Binding affinity to calf thymus DNA assessed as DNA intercalation by measuring increase in viscosity at 15 uM by Ostwald viscometric method. In kind it is nucleic-acid assay. The settings on record: Bos taurus.
The target in experiment [9] is T1, DNA topoisomerase 1 (Homo sapiens) (UniProt P11387).
T1 sequence (whole entry): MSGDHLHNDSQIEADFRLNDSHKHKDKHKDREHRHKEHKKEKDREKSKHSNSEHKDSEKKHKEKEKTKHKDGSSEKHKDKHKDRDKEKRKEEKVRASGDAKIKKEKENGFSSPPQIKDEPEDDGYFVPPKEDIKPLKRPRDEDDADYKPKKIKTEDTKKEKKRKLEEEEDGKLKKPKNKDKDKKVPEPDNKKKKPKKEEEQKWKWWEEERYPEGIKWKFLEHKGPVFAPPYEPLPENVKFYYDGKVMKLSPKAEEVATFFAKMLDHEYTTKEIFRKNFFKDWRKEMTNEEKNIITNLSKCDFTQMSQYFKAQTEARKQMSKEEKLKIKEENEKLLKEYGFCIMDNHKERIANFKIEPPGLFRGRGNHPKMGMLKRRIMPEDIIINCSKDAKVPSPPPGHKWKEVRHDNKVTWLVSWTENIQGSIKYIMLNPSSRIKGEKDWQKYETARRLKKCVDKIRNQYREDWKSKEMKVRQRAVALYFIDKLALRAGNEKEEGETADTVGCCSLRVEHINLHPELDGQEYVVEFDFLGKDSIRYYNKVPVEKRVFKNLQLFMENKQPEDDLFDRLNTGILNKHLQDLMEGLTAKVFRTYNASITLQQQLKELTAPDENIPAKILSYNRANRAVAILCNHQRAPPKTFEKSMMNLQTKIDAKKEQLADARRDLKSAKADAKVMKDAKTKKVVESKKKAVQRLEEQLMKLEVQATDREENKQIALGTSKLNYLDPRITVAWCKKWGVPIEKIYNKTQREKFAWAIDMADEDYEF
Put plainly: Inhibition of topoisomerase-1 (unknown origin) at 100 uM using pBR322 DNA as substrate after 30 mins by agarose gel electrophoresis method.

For experiment [10], the system named is HeLa. Put plainly: Cell cycle arrest in human HeLa cells assessed as accumulation at sub-G1 phase at 2.5 uM after 48 hrs by propidium iodide staining based FACS analysis (reference value: 1.69%). The format is functional. In general terms: A flow cytometer gives signals particle by particle.
The subject of experiment [11] is HeLa. Put plainly: Cell cycle arrest in human HeLa cells assessed as accumulation at G1 phase at 2.5 uM after 48 hrs by propidium iodide staining based FACS analysis (reference value: 73.5%). The format is functional.
The subject of experiment [12] is HeLa. Put plainly: Cell cycle arrest in human HeLa cells assessed as accumulation at S phase at 2.5 uM after 48 hrs by propidium iodide staining based FACS analysis (reference value: 5.58%). The format is functional.
For experiment [13], the system named is HeLa. Description: Cell cycle arrest in human HeLa cells assessed as accumulation at G2/M phase at 2.5 uM after 48 hrs by propidium iodide staining based FACS analysis (reference value: 13.9%). The format is functional.
The test system of experiment [14] is HeLa. Put plainly: Cell cycle arrest in human HeLa cells assessed as accumulation at sub-G1 phase at 5 uM after 48 hrs by propidium iodide staining based FACS analysis (reference value: 1.69%). The format is functional.
Experiment [15] concerns HeLa. Put plainly: Cell cycle arrest in human HeLa cells assessed as accumulation at G1 phase at 5 uM after 48 hrs by propidium iodide staining based FACS analysis (reference value: 73.5%). The format is functional.
The subject of experiment [16] is HeLa. Put plainly: Cell cycle arrest in human HeLa cells assessed as accumulation at S phase at 5 uM after 48 hrs by propidium iodide staining based FACS analysis (reference value: 5.58%). In kind it is functional.
The subject of experiment [17] is HeLa. Put plainly: Cell cycle arrest in human HeLa cells assessed as accumulation at G2/M phase at 5 uM after 48 hrs by propidium iodide staining based FACS analysis (reference value: 13.9%). The format is functional.

Activity calls are given as the source filed them. The calls are words filed in the database; no cut-off is given here.

On to `CN1CCN(c2ccc3[nH]c(-c4ccc5[nH]c(-c6ccc(O)cc6)nc5c4)nc3c2)CC1`, for which the outcome in the experiment with Calf thymus DNA [1] was inactive.

In the case of `COc1ccc2nc(NC(c3cn(-c4ccccc4)nc3-c3ccc([N+](=O)[O-])cc3)c3c(O)ccc4ccccc34)sc2c1` (stereo unspecified), the IC50 was 22.5 µM in the experiment on A549, 13.3 µM with MCF7, 5.54 µM in the experiment with HeLa [2] and 46.5 µM in the experiment on HEK293. Further, the outcome in the experiment with Calf thymus DNA [3], in the experiment on Calf thymus DNA [5], in the experiment with Calf thymus DNA [6] and in the experiment with Calf thymus DNA [7] was Active. Further, the Activity in the experiment with Calf thymus DNA [4] was 337 nm. Besides, the outcome in the experiment on Calf thymus DNA [8] was inactive. Besides, the inhibition result in experiment [9] was “Active”.

Take `CC[n+]1c(-c2ccccc2)c2cc(N)ccc2c2ccc(N)cc21`: the outcome in the experiment on Calf thymus DNA [1] was Active.

Regarding `COc1ccc2nc(NC(c3cn(-c4ccccc4)nc3-c3ccc(Cl)cc3)c3c(O)ccc4ccccc34)sc2c1` (stereo unspecified), the IC50 is 34.5 µM in the experiment with A549, 23.7 µM in the experiment on MCF7, 5.2 µM in the experiment on HeLa [2] and 56 µM in the experiment on HEK293. Also, the Activity was determined as 2.33% with HeLa [10]; 66.2% in the experiment with HeLa [11]; 8.89% in the experiment with HeLa [12]; 19.9% in the experiment on HeLa [13]; 2.03% in the experiment on HeLa [14]; 66.5% in the experiment with HeLa [15]. For the same molecule, the Activity was determined as 9.03% with HeLa [16], 20% in the experiment on HeLa [17] and 507 nm in the experiment with Calf thymus DNA [4]. In addition, the outcome in the experiment with Calf thymus DNA [3], in the experiment on Calf thymus DNA [5], with Calf thymus DNA [6] and in the experiment with Calf thymus DNA [7] was Active. The outcome with Calf thymus DNA [8] was inactive. Further, the inhibition result in experiment [9] was “Active”.

Take `COc1ccc2nc(NC(c3cn(-c4ccccc4)nc3-c3ccc(F)cc3)c3c(O)ccc4ccccc34)sc2c1` (stereo unspecified): the IC50 in the experiment on A549 is 33.6 µM; with MCF7, 16.9 µM; in the experiment on HeLa [2], 4.63 µM; with HEK293, 58.1 µM. The Activity is recorded as 2.79% in the experiment with HeLa [10]; 57.5% in the experiment with HeLa [11]; 11.5% with HeLa [12]; 25.3% with HeLa [13]; 3.09% in the experiment with HeLa [14]; 60% in the experiment on HeLa [15]. Further, the Activity with HeLa [16] stood at 5.08%; in the experiment on HeLa [17] it was 28.2%; in the experiment with Calf thymus DNA [4], 507 nm. Further, the outcome with Calf thymus DNA [3], in the experiment on Calf thymus DNA [5], with Calf thymus DNA [6] and with Calf thymus DNA [7] was Active. Moreover, the outcome in the experiment with Calf thymus DNA [8] was inactive. Besides, the inhibition entry in experiment [9] was “Active”.

The IC50 is the concentration at which inhibition is half-maximal.

The values are drawn from ChEMBL document CHEMBL4330150, “Synthesis and biological evaluation of pyrazole linked benzothiazole-β-naphthol derivatives as topoisomerase I inhibitors with DNA binding ability” (Bioorg Med Chem, 2019).
